Data: patent US12649746B2, “Ketorolaco derivative, pharmaceutical composition and preparation method therefor and use thereof” (NANJING HERON PHARMACEUTICAL SCIENCE AND TECHNOLOGY CO., …, priority 2020, dated 2026)

How the values were obtained:
[1] = Stability study of levorotatory enantiomer of compounds in solvent (MCT); assay type: physicochemical; details: MCT solution; for Isomer (%): dextrorotatory form
Experimental: 2. Test method: the samples were prepared according to Table 2, wherein each sample was dispensed into 10 vials according to the lofting volume, and the samples were lofted according to Table 3.
4. The related substance was determined according to high performance liquid chromatography (General Chapter 0512, China Pharmacopoeia, 2015 Edition).
(1) Chromatographic conditions: the chromatography column was Agilent ZORBAX SB-C8, 4.6 mm×250 mm, 5 μm, and 0.1% phosphoric acid solution-acetonitrile (50:50) was used as a mobile phase; the detection wavelength was […]; the flow rate was 1.0 mL/min; the column temperature was 40° C., and linear gradient elution was performed according to the following table;
(§1) (2) Determination method: an appropriate amount of the product was weighed precisely, a diluent (absolute ethanol) was added and shaken to dissolve, and quantitatively diluted to give a solution containing 0.4 mg per 1 mL, the solution was […] by vortex for 30 s, and filtered with PTFE filter membrane (0.22 μm, JINTENG), and the filtrate was collected as a test sample solution. 10 μL of the solution was weighed precisely and injected into a liquid chromatograph, and a chromatogram was recorded; if an impurity peak existed in the chromatogram of the test sample solution, calculation was performed according to a peak area normalization method to give the target product.
5. Isomer determination was performed according to high performance liquid chromatography (General Chapter 0512, China Pharmacopoeia, 2015 Edition).
(1) Chromatographic conditions: cellulose-tris(3,5-dimethylphenylcarbamate)silica gel was used as filler (Chiralcel OD-H, 250×4.6 mm, 5 μm); n-hexane-isopropanol (90:10) was used as a mobile phase, and isocratic elution was performed for 25 min at a flow rate of 1.0 mL/min; the column temperature was 35° C.; the detection wavelength was 310 nm.
as §1, with “(n-hexane-isopropanol (90:10))” for “(absolute ethanol)”, “about 1.0” for “0.4”, “20” for “10”, “isomer” for “impurity”

[2] = By-product toxicity test (metabolic byproducts in the human body); details: for Metabolic by-products in human body: by the metabolic pathways of the compounds in the human body; for Toxicity: toxicity of the metabolic by-products in human body
[3] = High temperature stability study of compounds (60° C.); assay type: physicochemical; details: in the dark; for Ketorolac (%): related substance
Experimental: Test protocol: the compounds prepared in the present disclosure were placed in a colorless and transparent vial, placed in the dark at a high temperature (60° C.), and were sampled for day 0, day 5 and day 10, respectively, and the purity of the compounds and the change of the related substance (ketorolac) were determined.

## CC(C)OC(=O)OC(C)OC(=O)[C@H]1CCn2c(C(=O)c3ccccc3)ccc21 (stereo partly drawn) [N2(S)]
[1]; 5° C., Day 5
  Ketorolac (%): 0.2%
  Purity (%): 99.08%
  Isomer (%): 5.63%
[1]; 5° C., Day 15
  Ketorolac (%): 0.14%
  Purity (%): 99.18%
  Isomer (%): 5.87%
[1]; 5° C., Day 30
  Ketorolac (%): 0.25%
  Purity (%): 99.01%
  Isomer (%): 5.99%
[1]; 5° C., day 0
  Ketorolac (%): 0.16%
  Purity (%): 99.14%
  Isomer (%): 5.65%
[1]; 25° C., Day 5
  Ketorolac (%): 0.21%
  Purity (%): 99.08%
  Isomer (%): 5.66%
[1]; 25° C., Day 15
  Ketorolac (%): 0.17%
  Purity (%): 99.13%
  Isomer (%): 5.86%
[1]; 25° C., Day 30
  Ketorolac (%): 0.28%
  Purity (%): 98.95%
  Isomer (%): 6.01%
[1]; 25° C., day 0
  Ketorolac (%): 0.16%
  Purity (%): 99.14%
  Isomer (%): 5.65%
[1]; 60° C., Day 5
  Ketorolac (%): 0.3%
  Purity (%): 98.92%
  Isomer (%): 5.7%
[1]; 60° C., Day 15
  Ketorolac (%): 0.49%
  Purity (%): 98.67%
  Isomer (%): 5.89%
[1]; 60° C., Day 30
  Ketorolac (%): 0.65%
  Purity (%): 98.38%
  Isomer (%): 6.13%
[1]; 60° C., day 0
  Ketorolac (%): 0.16%
  Purity (%): 99.14%
  Isomer (%): 5.65%

## CCC(OC(C)=O)OC(=O)C1CCn2c(C(=O)c3ccccc3)ccc21 (stereo not shown) [N3]
[2]
  Metabolic by-products in human body: Propionaldehyde and acetic acid
  Toxicity: relatively low
[3]; Day 0
  Total main peak purity (%): 92.45%
  Ketorolac (%): 0.11%
[3]; Day 5
  Total main peak purity (%): 90.83%
  Ketorolac (%): 0.15%
[3]; Day 10
  Total main peak purity (%): 90.36%
  Ketorolac (%): 0.17%

## CCC(=O)OC(C)OC(=O)C1CCn2c(C(=O)c3ccccc3)ccc21 (stereo not shown) [N4]
[2]
  Metabolic by-products in human body: Acetaldehyde and propionic acid
  Toxicity: relatively low
[3]; Day 0
  Total main peak purity (%): 98.91%
  Ketorolac (%): 0.12%
[3]; Day 5
  Total main peak purity (%): 98.38%
  Ketorolac (%): 0.17%
[3]; Day 10
  Total main peak purity (%): 98.04%
  Ketorolac (%): 0.14%

## CC(=O)OC(OC(=O)C1CCn2c(C(=O)c3ccccc3)ccc21)C(C)C (stereo not shown) [N5]
[2]
  Metabolic by-products in human body: Isobutyraldehyde and acetic acid
[3]; Day 0
  Total main peak purity (%): 97.46%
  Ketorolac (%): 0.14%
[3]; Day 5
  Total main peak purity (%): 97.62%
  Ketorolac (%): 0.15%
[3]; Day 10
  Total main peak purity (%): 97.37%
  Ketorolac (%): 0.17%

## CCC(=O)OC(OC(=O)C1CCn2c(C(=O)c3ccccc3)ccc21)C(C)C (stereo not shown) [N9]
[3]; Day 0
  Total main peak purity (%): 96.21%
  Ketorolac (%): 0.29%
[3]; Day 5
  Total main peak purity (%): 95.58%
  Ketorolac (%): 0.31%
[3]; Day 10
  Total main peak purity (%): 95.21%
  Ketorolac (%): 0.30%

## CCOC(=O)OC(C)OC(=O)[C@H]1CCn2c(C(=O)c3ccccc3)ccc21 (stereo partly drawn) [N12(S)]
[1]; 5° C., Day 5
  Ketorolac (%): 0.02%
  Purity (%): 99.62%
  Isomer (%): 3.05%
[1]; 5° C., Day 15
  Ketorolac (%): 0.02%
  Purity (%): 99.64%
  Isomer (%): 3.07%
[1]; 5° C., Day 30
  Ketorolac (%): 0.03%
  Purity (%): 99.55%
  Isomer (%): 3.06%
[1]; 5° C., day 0
  Ketorolac (%): 0.02%
  Purity (%): 99.65%
  Isomer (%): 3.01%
[1]; 25° C., Day 5
  Ketorolac (%): 0.03%
  Purity (%): 99.59%
  Isomer (%): 3.04%
[1]; 25° C., Day 15
  Ketorolac (%): 0.04%
  Purity (%): 99.61%
  Isomer (%): 3.09%
[1]; 25° C., Day 30
  Ketorolac (%): 0.07%
  Purity (%): 99.49%
  Isomer (%): 3.11%
[1]; 25° C., day 0
  Ketorolac (%): 0.02%
  Purity (%): 99.65%
  Isomer (%): 3.01%
[1]; 60° C., Day 5
  Ketorolac (%): 0.09%
  Purity (%): 99.53%
  Isomer (%): 3.12%
[1]; 60° C., Day 15
  Ketorolac (%): 0.23%
  Purity (%): 99.35%
  Isomer (%): 3.1%
[1]; 60° C., Day 30
  Ketorolac (%): 0.41%
  Purity (%): 99.05%
  Isomer (%): 3.48%
[1]; 60° C., day 0
  Ketorolac (%): 0.02%
  Purity (%): 99.65%
  Isomer (%): 3.01%

## COC(=O)OC(C)OC(=O)C1CCn2c(C(=O)c3ccccc3)ccc21 (stereo not shown) [N13]
[2]
  Metabolic by-products in human body: Acetaldehyde and methanol
  Toxicity: Methanol is more toxic

## CCOC(=O)OC(CC)OC(=O)[C@H]1CCn2c(C(=O)c3ccccc3)ccc21 (stereo partly drawn) [N15(S)]
[1]; 5° C., Day 5
  Ketorolac (%): 0.02%
  Purity (%): 99.46%
  Isomer (%): 4.58%
[1]; 5° C., Day 15
  Ketorolac (%): 0.02%
  Purity (%): 99.45%
  Isomer (%): 4.73%
[1]; 5° C., Day 30
  Ketorolac (%): 0.03%
  Purity (%): 99.38%
  Isomer (%): 4.62%
[1]; 5° C., day 0
  Ketorolac (%): 0.03%
  Purity (%): 99.48%
  Isomer (%): 4.59%
[1]; 25° C., Day 5
  Ketorolac (%): 0.03%
  Purity (%): 99.42%
  Isomer (%): 4.58%
[1]; 25° C., Day 15
  Ketorolac (%): 0.03%
  Purity (%): 99.41%
  Isomer (%): 4.72%
[1]; 25° C., Day 30
  Ketorolac (%): 0.05%
  Purity (%): 99.33%
  Isomer (%): 4.64%
[1]; 25° C., day 0
  Ketorolac (%): 0.03%
  Purity (%): 99.48%
  Isomer (%): 4.59%
[1]; 60° C., Day 5
  Ketorolac (%): 0.06%
  Purity (%): 99.35%
  Isomer (%): 4.59%
[1]; 60° C., Day 15
  Ketorolac (%): 0.17%
  Purity (%): 99.21%
  Isomer (%): 4.75%
[1]; 60° C., Day 30
  Ketorolac (%): 0.35%
  Purity (%): 98.92%
  Isomer (%): 4.63%
[1]; 60° C., day 0
  Ketorolac (%): 0.03%
  Purity (%): 99.48%
  Isomer (%): 4.59%

## CCC(OC(=O)OC(C)C)OC(=O)[C@H]1CCn2c(C(=O)c3ccccc3)ccc21 (stereo partly drawn) [N16(S)]
[1]; 5° C., Day 5
  Ketorolac (%): 0.03%
  Purity (%): 99.55%
  Isomer (%): 2.47%
[1]; 5° C., Day 15
  Ketorolac (%): 0.02%
  Purity (%): 99.65%
  Isomer (%): 2.6%
[1]; 5° C., Day 30
  Ketorolac (%): 0.03%
  Purity (%): 99.52%
  Isomer (%): 2.58%
[1]; 5° C., day 0
  Ketorolac (%): 0.02%
  Purity (%): 99.71%
  Isomer (%): 2.46%
[1]; 25° C., Day 5
  Ketorolac (%): 0.03%
  Purity (%): 99.52%
  Isomer (%): 2.47%
[1]; 25° C., Day 15
  Ketorolac (%): 0.03%
  Purity (%): 99.63%
  Isomer (%): 2.6%
[1]; 25° C., Day 30
  Ketorolac (%): 0.04%
  Purity (%): 99.48%
  Isomer (%): 2.59%
[1]; 25° C., day 0
  Ketorolac (%): 0.02%
  Purity (%): 99.71%
  Isomer (%): 2.46%
[1]; 60° C., Day 5
  Ketorolac (%): 0.05%
  Purity (%): 99.52%
  Isomer (%): 2.48%
[1]; 60° C., Day 15
  Ketorolac (%): 0.12%
  Purity (%): 99.51%
  Isomer (%): 2.61%
[1]; 60° C., Day 30
  Ketorolac (%): 0.24%
  Purity (%): 99.27%
  Isomer (%): 2.63%
[1]; 60° C., day 0
  Ketorolac (%): 0.02%
  Purity (%): 99.71%
  Isomer (%): 2.46%

## CCOC(=O)OC(OC(=O)C1CCn2c(C(=O)c3ccccc3)ccc21)C(C)C (stereo not shown) [N18]
[3]; Day 0
  Total main peak purity (%): 94.25%
  Ketorolac (%): 0.06%
[3]; Day 5
  Total main peak purity (%): 92.10%
  Ketorolac (%): 0.18%
[3]; Day 10
  Total main peak purity (%): 91.78%
  Ketorolac (%): 0.26%

## CC(C)OC(=O)OC(OC(=O)C1CCn2c(C(=O)c3ccccc3)ccc21)C(C)C (stereo not shown) [N19]
[3]; Day 0
  Total main peak purity (%): 96.30%
  Ketorolac (%): 0.07%
[3]; Day 5
  Total main peak purity (%): 94.61%
  Ketorolac (%): 0.09%
[3]; Day 10
  Total main peak purity (%): 94.41%
  Ketorolac (%): 0.12%
